Reference: patent US20210038607A1, “OXADIAZOLYLTHIOPHENE DERIVATIVES USEFUL AS HISTONE DEACETYLASE INHIBITORS” (Karus Therapeutics Limited, priority 2018, published 2021)

How the values were obtained:
Human HDAC5 = molecular target: T1, Human HDAC5 (Homo sapiens, UniProt Q9UQL6); assay: HDAC5 biochemical assay, class IIa-specific substrate; details: read-out: HDAC Isoform IC50 (nM) 5
T1 construct: full length with C-terminal His tag, MW=51.1 kDa; His (C); host or cells: baculovirus expression system
T1 sequence (Q9UQL6 656-1122 limits assumed): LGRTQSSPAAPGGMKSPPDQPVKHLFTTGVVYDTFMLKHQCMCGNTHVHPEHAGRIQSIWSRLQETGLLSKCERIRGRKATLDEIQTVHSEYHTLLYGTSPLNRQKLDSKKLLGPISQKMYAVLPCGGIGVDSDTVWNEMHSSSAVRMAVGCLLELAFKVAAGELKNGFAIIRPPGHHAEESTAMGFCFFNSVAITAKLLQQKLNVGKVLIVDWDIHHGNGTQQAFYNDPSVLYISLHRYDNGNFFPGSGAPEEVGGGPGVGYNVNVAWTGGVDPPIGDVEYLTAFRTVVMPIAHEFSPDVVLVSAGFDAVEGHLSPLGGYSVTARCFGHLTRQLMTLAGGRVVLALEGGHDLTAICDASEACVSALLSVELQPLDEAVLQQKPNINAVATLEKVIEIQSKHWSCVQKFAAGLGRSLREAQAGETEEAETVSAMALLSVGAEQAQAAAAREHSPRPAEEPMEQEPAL
Procedure, shortened: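 Two-step fluorogenic read-out: deacetylated trifluoroacetyl-lysine AMC substrate (50 μM) digested by developer, measured at Ex/Em 360/460. Deacetylation step: 0.05 ng/ul His-tagged full-length baculoviral enzyme with compound, 30 min, room temperature, pH 8.0 Tris with 1 mg/mL BSA and 1% DMSO.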

Human HDAC4 = molecular target: T2, Human HDAC4 (Homo sapiens, UniProt P56524); assay: HDAC4 biochemical assay, class IIa-specific substrate; details: read-out: HDAC Isoform IC50 (nM) 4
T2 construct: amino acids 627-1085 with N-terminal GST tag; GST (N); host or cells: baculovirus expression system
T2 sequence (P56524 627-1084 limits assumed): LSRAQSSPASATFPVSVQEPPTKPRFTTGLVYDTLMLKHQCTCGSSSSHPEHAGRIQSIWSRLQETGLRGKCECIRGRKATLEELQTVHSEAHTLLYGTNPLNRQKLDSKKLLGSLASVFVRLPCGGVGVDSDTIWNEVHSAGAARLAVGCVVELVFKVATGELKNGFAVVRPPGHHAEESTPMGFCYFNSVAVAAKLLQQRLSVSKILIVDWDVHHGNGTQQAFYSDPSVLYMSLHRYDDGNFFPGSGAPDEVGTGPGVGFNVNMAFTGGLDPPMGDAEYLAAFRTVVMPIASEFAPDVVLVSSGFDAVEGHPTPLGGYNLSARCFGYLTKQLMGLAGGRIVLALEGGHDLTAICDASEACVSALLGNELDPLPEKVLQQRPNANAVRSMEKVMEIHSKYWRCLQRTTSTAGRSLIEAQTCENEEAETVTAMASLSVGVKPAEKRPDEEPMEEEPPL
Procedure, shortened: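 Two-step fluorogenic read-out: deacetylated BOC-Lys(trifluoroacetyl)-AMC (50 μM) was digested by developer and measured at Ex/Em 360/460. Deacetylation by 0.004 ng/ul HDAC4 (aa 627-1085, N-terminal GST) ran 30 min at room temperature, pH 8.0 Tris buffer, 1 mg/mL BSA, 1% DMSO.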

Human HDAC9 = molecular target: T3, Human HDAC9 (Homo sapiens, UniProt Q9UKV0); assay: HDAC9 biochemical assay, class IIa-specific substrate; details: read-out: HDAC Isoform IC50 (nM) 9
T3 construct: amino acids 604-1066 with C-terminal His tag; His (C); host or cells: baculovirus expression system
T3 sequence (Q9UKV0 604-1066 isoform Q9UKV0-5): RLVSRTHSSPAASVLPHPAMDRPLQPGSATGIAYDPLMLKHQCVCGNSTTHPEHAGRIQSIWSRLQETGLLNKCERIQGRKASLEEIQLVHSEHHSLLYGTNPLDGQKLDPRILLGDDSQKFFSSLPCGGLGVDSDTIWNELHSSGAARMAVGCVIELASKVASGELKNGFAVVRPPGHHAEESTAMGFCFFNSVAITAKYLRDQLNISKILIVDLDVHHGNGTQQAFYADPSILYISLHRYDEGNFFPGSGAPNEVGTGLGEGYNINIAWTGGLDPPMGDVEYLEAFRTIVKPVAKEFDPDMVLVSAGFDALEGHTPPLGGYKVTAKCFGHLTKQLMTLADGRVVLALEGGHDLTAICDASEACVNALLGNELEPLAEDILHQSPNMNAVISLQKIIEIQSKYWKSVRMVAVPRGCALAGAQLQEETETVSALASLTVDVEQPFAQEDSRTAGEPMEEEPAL
Procedure, shortened: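 HDAC9 residues 604-1066 (C-terminal His tag, baculovirus-expressed) at 0.06 ng/ul with 50 μM class IIa substrate Boc-Lys(trifluoroacetyl)-AMC in Tris-HCl pH 8.0 buffer with BSA and 1% DMSO. 30 min at room temperature, then developer added; fluorescence read at 360/460 nm Ex/Em.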

Human HDAC7 = molecular target: T4, Human HDAC7 (Homo sapiens, UniProt Q8WUI4); assay: HDAC7 biochemical assay, class IIa-specific substrate; details: read-out: HDAC Isoform IC50 (nM) 7
T4 construct: (a.a. 518-end) with N-terminal GST tag; GST (N); host or cells: baculovirus expression system
T4 sequence (Q8WUI4 518-952 limits assumed): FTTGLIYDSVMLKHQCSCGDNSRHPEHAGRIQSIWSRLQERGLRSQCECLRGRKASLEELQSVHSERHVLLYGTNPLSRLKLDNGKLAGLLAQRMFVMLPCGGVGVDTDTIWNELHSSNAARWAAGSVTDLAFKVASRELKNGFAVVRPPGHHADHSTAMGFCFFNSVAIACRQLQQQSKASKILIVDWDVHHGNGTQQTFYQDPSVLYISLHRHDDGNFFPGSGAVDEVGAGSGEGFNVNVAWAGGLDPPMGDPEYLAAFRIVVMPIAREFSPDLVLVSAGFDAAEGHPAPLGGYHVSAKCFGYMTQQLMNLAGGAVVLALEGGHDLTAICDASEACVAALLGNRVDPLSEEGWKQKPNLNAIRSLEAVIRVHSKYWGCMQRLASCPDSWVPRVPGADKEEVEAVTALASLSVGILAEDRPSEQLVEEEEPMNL
Procedure, shortened: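 Two-step fluorogenic readout: class IIa-selective trifluoroacetyl-lysine AMC substrate (50 μM) deacetylated by N-terminal GST-HDAC7 fragment (0.001 ng/ul), then digested by developer, Ex/Em 360/460. Reaction: 30 min, room temperature, Tris-HCl pH 8.0, NaCl/KCl/MgCl2, 1 mg/mL BSA, 1% DMSO.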

Recombinant human HDAC6 = molecular target: T5, Recombinant human HDAC6 (Homo sapiens, UniProt Q9UBN7); assay: HDAC6 biochemical assay, AMC-labeled peptide substrate; details: HDAC6; read-out: HDAC Isoform IC50 (nM) 6
T5 construct: full length, MW=159 kDa; GST (N); host or cells: Sf9 insect cells (baculovirus)
T5 sequence (Q9UBN7 1-1215): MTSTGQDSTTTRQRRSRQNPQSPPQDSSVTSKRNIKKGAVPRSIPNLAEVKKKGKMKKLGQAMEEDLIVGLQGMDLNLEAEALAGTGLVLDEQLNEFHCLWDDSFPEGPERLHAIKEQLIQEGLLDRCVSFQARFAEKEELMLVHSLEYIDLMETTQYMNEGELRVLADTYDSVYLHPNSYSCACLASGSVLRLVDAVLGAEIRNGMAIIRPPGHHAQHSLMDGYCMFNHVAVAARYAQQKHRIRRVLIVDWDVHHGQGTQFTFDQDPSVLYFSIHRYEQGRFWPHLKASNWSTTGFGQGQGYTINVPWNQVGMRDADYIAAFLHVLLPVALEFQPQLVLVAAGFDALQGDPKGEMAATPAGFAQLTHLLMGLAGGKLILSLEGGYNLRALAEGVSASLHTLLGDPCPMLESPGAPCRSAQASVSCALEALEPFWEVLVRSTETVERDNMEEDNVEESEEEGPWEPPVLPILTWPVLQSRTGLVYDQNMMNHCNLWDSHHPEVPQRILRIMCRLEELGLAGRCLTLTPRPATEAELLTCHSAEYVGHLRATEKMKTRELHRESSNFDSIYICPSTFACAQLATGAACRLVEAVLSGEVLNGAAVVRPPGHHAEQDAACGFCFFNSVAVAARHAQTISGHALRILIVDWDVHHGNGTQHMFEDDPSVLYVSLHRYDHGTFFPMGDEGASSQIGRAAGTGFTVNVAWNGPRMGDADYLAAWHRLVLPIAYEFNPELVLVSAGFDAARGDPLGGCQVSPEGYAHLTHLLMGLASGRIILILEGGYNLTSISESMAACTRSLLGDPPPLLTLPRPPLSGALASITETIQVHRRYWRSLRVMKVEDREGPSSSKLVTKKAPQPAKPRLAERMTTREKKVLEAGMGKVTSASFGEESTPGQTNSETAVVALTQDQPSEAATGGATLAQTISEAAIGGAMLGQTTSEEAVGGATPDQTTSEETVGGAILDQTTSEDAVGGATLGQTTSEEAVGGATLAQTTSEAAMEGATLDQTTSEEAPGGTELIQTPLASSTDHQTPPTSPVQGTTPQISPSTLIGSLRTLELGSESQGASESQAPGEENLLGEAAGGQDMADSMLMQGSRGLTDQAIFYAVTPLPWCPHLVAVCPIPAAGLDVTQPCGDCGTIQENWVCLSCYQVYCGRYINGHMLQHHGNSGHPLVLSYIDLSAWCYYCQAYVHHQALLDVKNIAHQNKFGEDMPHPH
Procedure, shortened: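 Two-step fluorogenic read-out: enzyme deacetylates 50 μM RHKK(Ac)AMC for 1 h at 30° C in pH 8.0 Tris buffer with BSA and 1% DMSO, then developer cleavage gives signal at Ex 360/Em 460. Enzyme: 0.3 ng/ul recombinant full-length human HDAC6, GST-tagged, Sf9-expressed.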

Human HDAC1 = molecular target: T6, Human HDAC1 (Homo sapiens, UniProt Q13547); assay: HDAC1 biochemical assay, AMC-labeled peptide substrate; details: read-out: HDAC Isoform IC50 (nM) 1
T6 construct: full length with C-terminal His-tag and C-terminal FLAG-tag; His (C); FLAG (C); host or cells: baculovirus expression system
T6 sequence (Q13547 whole entry, canonical isoform): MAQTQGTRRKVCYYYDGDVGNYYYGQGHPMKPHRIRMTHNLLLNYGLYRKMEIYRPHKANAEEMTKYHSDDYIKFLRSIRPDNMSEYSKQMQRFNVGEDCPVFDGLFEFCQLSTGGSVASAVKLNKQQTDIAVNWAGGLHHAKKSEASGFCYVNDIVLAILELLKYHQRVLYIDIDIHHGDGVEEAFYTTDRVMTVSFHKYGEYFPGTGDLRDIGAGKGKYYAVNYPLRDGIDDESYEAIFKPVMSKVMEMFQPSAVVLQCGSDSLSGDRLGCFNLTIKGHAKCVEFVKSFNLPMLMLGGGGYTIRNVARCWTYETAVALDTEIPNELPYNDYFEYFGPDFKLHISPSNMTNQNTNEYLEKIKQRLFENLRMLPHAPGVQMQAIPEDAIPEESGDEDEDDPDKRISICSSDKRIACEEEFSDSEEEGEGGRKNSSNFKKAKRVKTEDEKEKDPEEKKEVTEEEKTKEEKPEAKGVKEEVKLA
Procedure, shortened: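 Two-step fluorogenic read: HDAC1 deacetylates 50 μM acetyl-lysine AMC peptide RHKK(Ac)AMC for 1 h at 30° C (pH 8.0, 1% DMSO, with compound), then developer digests the product for fluorescence at Ex/Em 360/460. Enzyme is full-length human, His/FLAG-tagged, insect-cell expressed, at 0.3 ng/ul.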

Row | Compound | IC50 (Human HDAC5) [nM] | IC50 (Human HDAC4) [nM] | IC50 (Human HDAC9) [nM] | IC50 (Human HDAC7) [nM] | IC50 (Recombinant human HDAC6) [nM] | IC50 (Human HDAC1) [nM]
1 | FC(F)(F)c1nc(-c2ccc(CN(c3cnccn3)c3cnsn3)s2)no1 [Example S, N-(1,2,5-Thiadiazol-3-yl)-N-({5-[5-(trifluoromethyl)-1,2,4-oxadiazol-3-yl]thiophen-2-yl}methyl)pyrazin-2-amine] | ≤ 10000 | ≤ 1000 | ≤ 10000 | ≤ 10000 | ≤ 10000 | > 10000
2 | FC(F)(F)c1nc(-c2ccc(CN(c3cnccn3)c3cccc(N4CCOCC4)n3)s2)no1 [Example W, N-[6-(Morpholin-4-yl)pyridin-2-yl]-N-({5-[5-(trifluoromethyl)-1,2,4-oxadiazol-3-yl]thiophen-2-yl}methyl)pyrazin-2-amine] | ≤ 10000 | ≤ 10000 | ≤ 10000 | ≤ 10000 | ≤ 10000 | > 10000
3 | FC(F)(F)c1nc(-c2ccc(CN(c3cnccn3)c3ccc(-c4ccccc4)nn3)s2)no1 [Example DN, 6-Phenyl-N-(pyrazin-2-yl)-N-({5-[5-(trifluoromethyl)-1,2,4-oxadiazol-3-yl]thiophen-2-yl}methyl)pyridazin-3-amine] | ≤ 500 | ≤ 1000 | ≤ 10000 | ≤ 500 | ≤ 500 | ≤ 10000
4 | COc1ncc(N(Cc2ccc(-c3noc(C(F)(F)F)n3)s2)c2cnccn2)nc1OC [Example BW, 5,6-Dimethoxy-N-(pyrazin-2-yl)-N-({5-[5-(trifluoromethyl)-1,2,4-oxadiazol-3-yl]thiophen-2-yl}methyl)pyrazin-2-amine] | ≤ 10000 | ≤ 10000 | ≤ 10000 | ≤ 10000 | ≤ 10000 | > 10000
5 | COc1cnc(N(Cc2ccc(-c3noc(C(F)(F)F)n3)s2)c2cnccn2)nc1 [Example AY, 5-Methoxy-N-(pyrazin-2-yl)-N-({5-[5-(trifluoromethyl)-1,2,4-oxadiazol-3-yl]thiophen-2-yl}methyl)pyrimidin-2-amine] | ≤ 10000 | ≤ 10000 | ≤ 10000 | ≤ 10000 | ≤ 1000 | ≤ 10000
6 | Cn1ccc2c(N(Cc3ccc(-c4noc(C(F)(F)F)n4)s3)c3cnccn3)ncnc21 [Example CM, N-{7-Methyl-7H-pyrrolo[2,3-d]pyrimidin-4-yl}-N-({5-[5-(trifluoromethyl)-1,2,4-oxadiazol-3-yl]thiophen-2-yl}methyl)pyrazin-2-amine] | ≤ 10000 | ≤ 10000 | ≤ 10000 | ≤ 10000 | ≤ 10000 | > 10000
7 | FC(F)(F)c1nccc(N(Cc2ccc(-c3noc(C(F)(F)F)n3)s2)c2cnccn2)n1 [Example CD, N-(Pyrazin-2-yl)-2-(trifluoromethyl)-N-({5-[5-(trifluoromethyl)-1,2,4-oxadiazol-3-yl]thiophen-2-yl}methyl)pyrimidin-4-amine] | ≤ 1000 | ≤ 1000 | ≤ 1000 | ≤ 1000 | ≤ 10000 | > 10000
8 | Cc1ncc(N(Cc2ccc(-c3noc(C(F)(F)F)n3)s2)c2cnccn2)cn1 [Example CS, 2-Methyl-N-(pyrazin-2-yl)-N-({5-[5-(trifluoromethyl)-1,2,4-oxadiazol-3-yl]thiophen-2-yl}methyl)pyrimidin-5-amine] | ≤ 1000 | ≤ 500 | ≤ 10000 | ≤ 500 | ≤ 1000 | ≤ 10000
9 | FC(F)(F)c1nc(-c2ccc(CN(c3cnccn3)c3cc(C4CC4)ccn3)s2)no1 [Example AH, N-(4-Cyclopropylpyridin-2-yl)-N-({5-[5-(trifluoromethyl)-1,2,4-oxadiazol-3-yl]thiophen-2-yl}methyl)pyrazin-2-amine] | ≤ 10000 | > 10000 | > 10000 | > 10000 | ≤ 10000 | > 10000
10 | Cc1cncc(N(Cc2ccc(-c3noc(C(F)(F)F)n3)s2)c2cc(C(F)(F)F)cnn2)n1 [Example EM, N-(6-Methylpyrazin-2-yl)-5-(trifluoromethyl)-N-({5-[5-(trifluoromethyl)-1,2,4-oxadiazol-3-yl]thiophen-2-yl}methyl)pyridazin-3-amine] | ≤ 10000 | ≤ 10000 | > 10000 | ≤ 10000 | ≤ 1000 | > 10000
11 | FC(F)(F)c1cnnc(N(Cc2ccc(-c3noc(C(F)(F)F)n3)s2)c2ccc(N3CCOCC3)nn2)c1 [Example EX, 6-(Morpholin-4-yl)-N-({5-[5-(trifluoromethyl)-1,2,4-oxadiazol-3-yl]thiophen-2-yl}methyl)-N-[5-(trifluoromethyl)pyridazin-3-yl]pyridazin-3-amine] | ≤ 10000 | ≤ 10000 | ≤ 10000 | ≤ 10000 | ≤ 1000 | ≤ 10000
12 | Cc1cnc(C)c(N(Cc2ccc(-c3noc(C(F)(F)F)n3)s2)c2cnccn2)n1 [Example BU, 3,6-Dimethyl-N-(pyrazin-2-yl)-N-({5-[5-(trifluoromethyl)-1,2,4-oxadiazol-3-yl]thiophen-2-yl}methyl)pyrazin-2-amine] | ≤ 500 | ≤ 500 | ≤ 1000 | ≤ 1000 | ≤ 10000 | > 10000
